Measured values: PMC8391421, “Identification of Novel Positive Allosteric Modulators of Neurotrophin Receptors for the Treatment of Cognitive Dysfunction” (Cells, 2021)

Tests used:
[1] = molecular target: T1, insulin-like growth factor 1 receptor (IGF1R) (Homo sapiens, UniProt P08069); assay: IGF1R PathHunter cell-based assay (HEK293-IGF1R)
T1 construct: host or cells: HEK293
Excerpt: The human osteosarcoma cell lines U2OS-TrkA/p75, U2OS-TrkB/p75, U2OS-TrkC/p75, U2OS-ratTrkA/p75, U2OS-FGFR1 (fibroblast growth factor receptor 1) as well as the human embryonic kidney cell line HEK293-IGF1R (insulin-like growth factor 1 receptor) from DiscoverX, Birmingham, United Kingdom, were used in the in vitro experiments. Eagle’s minimum essential medium (EMEM) ATCC #30-2003 from LGC Standards AB, Borås, Sweden; Leibovitz’s L15 medium, RPMI1640, fetal bovine serum, horse serum, penicillin/streptomycin, and Hoechst dye purchased from Invitrogen, Gothenburg, Sweden, were also used. Black poly-D-lysine coated 384-well plates (Viewplate) were purchased from PerkinElmer, Upplands Väsby, Sweden, and white 384-well assay plates(3570) were purchased from Corning, Amsterdam, Netherlands. […] Recombinant intracellular domain (ICD) of TrkA (08-186) and single site biotinylated activated (08-486-20N) or non-activated TrkA (08-486-23N) were obtained from Carna Biosciences, Odense, Denmark. […]
U2OS cells were maintained subconfluent in EMEM supplemented with 10% FBS and penicillin/streptomycin/hygromycin and G418. […] The functional (complemented) β-gal will hydrolyze a substrate to generate a luminescence signal. The generated luminescence was read using an EnVision plate reader from PerkinElmer, Upplands Väsby, Sweden, or an ID5 plate reader from Molecular Devices, Berkshire, RG41 5TS UK. […]

[2] = test system: Shaffer collaterals-CA1 pathway, hippocampal slices; assay: Facilitation of long-term potentiation in rat hippocampal slices; settings: 20 µM added 15 min before Ø burst stimulation; n = 7 slices from 5 rats
Protocol: Male Sprague Dawley rats (4–5 weeks old) from Charles River Laboratories, Sulzfeld, Germany, were used in these experiments. Rats were deeply anesthetized using isoflurane and decapitated soon after the disappearance of the corneal reflexes. The brains were removed and placed in ice-cold standard artificial CSF (aCSF) solution (124 mM NaCl, 30 mM NaHCO3, 10 mM glucose, 1.25 mM NaH2PO4, 3.5 mM KCl, 1 mM MgCl2, 2 mM CaCl2). Hippocampal horizontal sections (400 µm thick) were prepared using a Leica VT1200S vibratome (Leica Microsystems, Kista, Sweden). Immediately after slicing, sections were transferred into an interface incubation chamber filled with standard aCSF. The chamber was held at 34 °C during the slicing period and was subsequently allowed to cool down to room temperature. […] The facilitation of long-term potentiation (LTP) was monitored in the Shaffer collaterals (SC)-CA1 pathway in the hippocampus. […] Data were normalized with respect to the mean fEPSP slope recorded during the last 10 min of the baseline period.
It has been well-described that the transient, short-term plasticity of synaptic strength induced by a weak stimulation in hippocampal slices can turn into long-term potentiation (LTP) through the exogenous application of BDNF [71, 72, 73]. […] In the control slices, the recorded potentiation decreased to the baseline level after 60 min. […]

T1 sequence (P08069 31-1367): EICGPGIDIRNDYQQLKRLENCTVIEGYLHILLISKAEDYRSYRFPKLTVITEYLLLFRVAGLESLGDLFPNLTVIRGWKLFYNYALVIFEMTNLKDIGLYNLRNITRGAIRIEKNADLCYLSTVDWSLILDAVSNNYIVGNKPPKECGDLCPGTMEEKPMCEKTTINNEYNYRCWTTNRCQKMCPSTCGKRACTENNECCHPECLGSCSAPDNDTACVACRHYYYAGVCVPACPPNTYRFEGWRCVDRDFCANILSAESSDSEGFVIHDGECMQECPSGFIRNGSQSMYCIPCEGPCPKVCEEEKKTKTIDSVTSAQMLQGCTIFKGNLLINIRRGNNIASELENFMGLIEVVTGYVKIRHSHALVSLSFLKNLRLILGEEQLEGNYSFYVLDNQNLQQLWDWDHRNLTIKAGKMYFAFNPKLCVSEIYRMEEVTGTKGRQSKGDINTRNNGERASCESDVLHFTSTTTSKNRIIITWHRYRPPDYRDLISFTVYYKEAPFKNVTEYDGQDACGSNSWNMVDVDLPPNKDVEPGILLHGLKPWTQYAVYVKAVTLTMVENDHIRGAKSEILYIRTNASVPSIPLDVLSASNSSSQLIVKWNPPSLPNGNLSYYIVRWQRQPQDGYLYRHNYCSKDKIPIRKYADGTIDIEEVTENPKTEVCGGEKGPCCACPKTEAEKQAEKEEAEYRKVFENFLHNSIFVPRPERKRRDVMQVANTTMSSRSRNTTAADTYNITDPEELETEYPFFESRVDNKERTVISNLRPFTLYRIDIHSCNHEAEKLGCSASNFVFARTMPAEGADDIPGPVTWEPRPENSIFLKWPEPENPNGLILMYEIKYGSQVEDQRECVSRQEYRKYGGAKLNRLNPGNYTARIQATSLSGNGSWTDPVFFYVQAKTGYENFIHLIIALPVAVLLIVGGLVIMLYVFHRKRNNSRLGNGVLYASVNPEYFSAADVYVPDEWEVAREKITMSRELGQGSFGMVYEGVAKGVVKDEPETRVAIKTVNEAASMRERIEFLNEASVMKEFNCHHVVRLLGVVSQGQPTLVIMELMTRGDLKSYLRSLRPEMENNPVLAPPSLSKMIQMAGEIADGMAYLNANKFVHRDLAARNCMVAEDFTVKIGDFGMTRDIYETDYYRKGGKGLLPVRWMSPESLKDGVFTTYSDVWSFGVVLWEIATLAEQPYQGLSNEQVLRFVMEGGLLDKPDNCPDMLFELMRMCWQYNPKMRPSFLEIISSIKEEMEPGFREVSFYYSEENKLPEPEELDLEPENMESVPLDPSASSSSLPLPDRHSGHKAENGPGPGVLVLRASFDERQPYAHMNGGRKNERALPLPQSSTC

Cc1cc(-n2c(=O)[nH]c(=O)n(C)c2=O)ccc1Oc1ccc(S(=O)(=O)C(F)(F)F)cc1 [ACD855, Toltrazuril-sulfone]
EC50 [1]: 900 nM
IGF1R Effect (efficacy) [1]: 25%
long-lasting potentiation of evoked synaptic responses (fEPSP slope), fold increase [2]: 1.21 ± 0.03 fold
